Test results from publication PMC10064984, “Anti-cyclooxygenase, anti-glycation, and anti-skin aging effect of Dendrobium officinale flowers’ aqueous extract and its phytochemical validation in aging” (Frontiers in Immunology, 2023).
Values joined by “and” are separate entries in the source; they are usually repeats but may differ in a detail not shown here. Identical values can stand only once. Like-named read-outs stand apart in the source and are kept apart here.

Key:
[1] = Fluorescent AGEs formation in a BSA-fructose/glucose system; format: biochemical; conditions: for inhibition of fluorescent AGEs formation (BSA-抗糖化), single replicate: individual replicate; for inhibition of fluorescent AGEs formation (BSA-抗糖化), 平均 (mean): mean of 3 replicates
Method in brief: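 Fluorescent AGE inhibition was measured in triplicate, correcting sample and control fluorescence for BSA-free blanks. Glycation used BSA incubated with D-fructose and D-glucose, with samples dissolved in DMSO:water (1:4).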

[2] = FRAP total antioxidant capacity; format: biochemical; conditions: lower part of sheet (compound series);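 note: colourimetric FRAP kit assay read as absorbance in 96-well plates, values as mM FeSO4 via standard curve, EC1 being sample concentration matching 1.0 mmol/L FeSO4, Trolox positive control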
[3] = Online UPLC-PDA-MS-ABTS·+ scavenging (postcolumn derivatisation); conditions: within DOF extract
Description: Online identification of antioxidant components of DOF extract was performed using a UPLC system (Milford, MA, USA) consisting of a Waters photodiode array detector and a Waters postcolumn derivatisation system supplying fresh ABTS solution (UPLC-PDA-QDa-ABTS). […] The detection wavelengths were set at 280 and 734 nm, and the injection volume of the sample was 10 μl.
To detect radical scavengers, the UPLC system was coupled with a Waters pump, which supplied freshly prepared ABTS·+ solution into a reaction coil (15 m, 0.25 mm ID) with a flow rate of 0.2 ml/min at 37°C. Negative peaks were recorded based on a decrease of absorbance at 729 nm after the reaction of individual compounds with the ABTS·+ radical. For preliminary identification of compounds, a Waters Acquity QDa mass detector in negative ionisation mode was connected in series to PDA with the following parameters: electrospray ion source; cone voltage, 15 V; atomiser, N2; and scanning range, 100–800 m/z.

COX-2 = target: T1, COX-2 (Homo sapiens, UniProt P35354); test: Anti-COX-2 assay (COX-2 Inhibitor Screening Kit); format: biochemical
T1 construct: purchased Beyotime S0168
T1 sequence (P35354 18-604): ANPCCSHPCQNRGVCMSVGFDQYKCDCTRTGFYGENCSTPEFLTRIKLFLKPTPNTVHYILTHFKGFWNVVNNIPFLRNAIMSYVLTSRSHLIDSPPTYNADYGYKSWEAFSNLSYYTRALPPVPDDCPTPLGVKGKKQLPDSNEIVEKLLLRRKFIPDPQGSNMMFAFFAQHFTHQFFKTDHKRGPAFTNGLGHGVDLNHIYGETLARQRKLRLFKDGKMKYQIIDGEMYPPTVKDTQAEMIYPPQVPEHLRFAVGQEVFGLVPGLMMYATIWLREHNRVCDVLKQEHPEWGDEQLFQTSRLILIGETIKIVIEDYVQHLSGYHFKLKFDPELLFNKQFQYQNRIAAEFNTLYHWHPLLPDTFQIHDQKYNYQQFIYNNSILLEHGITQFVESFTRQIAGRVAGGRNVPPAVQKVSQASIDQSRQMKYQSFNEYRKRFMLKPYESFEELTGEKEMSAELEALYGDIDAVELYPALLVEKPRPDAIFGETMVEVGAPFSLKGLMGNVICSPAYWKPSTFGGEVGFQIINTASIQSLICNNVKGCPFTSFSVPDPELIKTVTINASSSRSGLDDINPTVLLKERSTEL

[4] = ABTS·+ decolourisation capacity; format: biochemical; conditions: for ABTS scavenging rate: replicate wells, listed as T9
Method in brief: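 IC50 values were derived graphically from dose-inhibition curves, with % inhibition calculated versus a buffer-only (0.2 M phosphate, pH 7.4) control. Each sample (200 μl) reacted for 10 min with 100 μl ABTS·+ reagent pre-set to A729 0.8 ± 0.05, then absorbance at 729 nm was measured in triplicate.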

DPPH· scavenging = format: biochemical; conditions: mean ± SD, n = 3
[5] = 15.625 µM, listed as T9, 15.625 µM
[6] = 31.25 µM, listed as T9, 31.25 µM

O=c1c(OC2OC(CO)C(O)C(O)C2OC2OC(CO)C(O)C(O)C2O)c(-c2ccc(O)c(O)c2)oc2cc(O)cc(O)c12 (centres unmarked) [compound 16, Quercetin-3-O-sophoroside]
inhibition of fluorescent AGEs formation (BSA-抗糖化), single replicate [1, 5]: -5.89% and 1.09% and -2.67%
inhibition of fluorescent AGEs formation (BSA-抗糖化), 平均 (mean) [1, 5]: -2.49%
inhibition of fluorescent AGEs formation (BSA-抗糖化), single replicate [1, 6]: 4.38% and 4.16% and -1.45%
inhibition of fluorescent AGEs formation (BSA-抗糖化), 平均 (mean) [1, 6]: 2.37%
inhibition of fluorescent AGEs formation (BSA-抗糖化), single replicate ([1]; 62.5 µM, listed as T9, 62.5 µM): 13.91% and 12.77% and 15.77%
inhibition of fluorescent AGEs formation (BSA-抗糖化), 平均 (mean) ([1]; 62.5 µM, listed as T9, 62.5 µM): 14.15%
inhibition of fluorescent AGEs formation (BSA-抗糖化), single replicate ([1]; 125 µM, listed as T9, 125 µM): 29.89% and 32.42% and 28.07%
inhibition of fluorescent AGEs formation (BSA-抗糖化), 平均 (mean) ([1]; 125 µM, listed as T9, 125 µM): 30.13%
inhibition of fluorescent AGEs formation (BSA-抗糖化), single replicate ([1]; 250 µM, listed as T9, 250 µM): 44.67% and 46.80% and 48.36%
inhibition of fluorescent AGEs formation (BSA-抗糖化), 平均 (mean) ([1]; 250 µM, listed as T9, 250 µM): 46.61%
inhibition of fluorescent AGEs formation (BSA-抗糖化), single replicate ([1]; 500 µM, listed as T9, 500 µM): 63.53% and 64.37% and 63.12%
inhibition of fluorescent AGEs formation (BSA-抗糖化), 平均 (mean) ([1]; 500 µM, listed as T9, 500 µM): 63.67%
inhibition of fluorescent AGEs formation (BSA-抗糖化), single replicate ([1]; 1000 µM, listed as T9, 1000 µM): 79.44% and 79.91% and 79.18%
inhibition of fluorescent AGEs formation (BSA-抗糖化), 平均 (mean) ([1]; 1000 µM, listed as T9, 1000 µM): 79.51%
inhibition of fluorescent AGEs formation (BSA-抗糖化), single replicate ([1]; 2000 µM, listed as T9, 2000 µM): 88.85% and 89.28% and 89.06%
inhibition of fluorescent AGEs formation (BSA-抗糖化), 平均 (mean) ([1]; 2000 µM, listed as T9, 2000 µM): 89.06%
inhibition of fluorescent AGEs formation (BSA-抗糖化), single replicate ([1]; 4000 µM (series head 'T9 4000µM', 2-fold dilutions), listed as T9): 94.75% and 94.42% and 94.91%
inhibition of fluorescent AGEs formation (BSA-抗糖化), 平均 (mean) ([1]; 4000 µM, listed as T9, 4000 µM): 94.69%
IC50 ([1]; mean ± SD, n = 3, read-out: BSA-glycation IC50): 296 ± 8.5 µM
FRAP EC1 [2]: 949.6 ± 41.9 µM
online ABTS radical scavenging (size of negative peaks at 734 nm) [3]: strongest ABTS radical scavengers
COX-2 inhibition (in words) (COX-2): great COX-2 inhibition
inhibition at 3.125 µM (COX-2; 3.125 μM, single replicates): 18.7%
COX-2 inhibition (COX-2; 3.125 μM, single replicates, listed as T9, 3.125 µM): 24.64% and 15.29%
inhibition at 6.25 µM (COX-2; 6.25 μM, single replicates): 29.8%
COX-2 inhibition (COX-2; 6.25 μM, single replicates, listed as T9, 6.25 µM): 26.80% and 27.13%
inhibition at 12.5 µM (COX-2; 12.5 μM, single replicates): 61.6%
COX-2 inhibition (COX-2; 12.5 μM, single replicates, listed as T9, 12.5 µM): 66.25% and 69.30%
inhibition at 25 µM (COX-2; 25 μM, single replicates): 73.7%
COX-2 inhibition (COX-2; 25 μM, single replicates, listed as T9, 25 µM): 76.43% and 76.52%
inhibition at 50 µM (COX-2; 50 μM, single replicates): 77.8%
COX-2 inhibition (COX-2; 50 μM, single replicates, listed as T9, 50 µM): 79.58% and 76.60%
inhibition at 100 µM (COX-2; 100 μM, single replicates): 79.3%
COX-2 inhibition (COX-2; 100 μM, single replicates, listed as T9, 100 µM): 79.42% and 83.93%
inhibition at 200 µM (COX-2; 200 μM, single replicates): 80.9%
COX-2 inhibition (COX-2; 200 μM, single replicates, listed as T9, 200 µM): 81.85% and 81.79%
IC50 (COX-2; mean ± SD, n = 3, nd, not detected, read-out: COX-2 IC50): 11 ± 0.7 µM
IC50 (COX-2; supplement sheet COX, read-out: COX-2 IC50, single replicate): 11.7 µM and 10.4 µM and 10.9 µM
ABTS scavenging rate ([4]; 0.1mM (second) series, concentration 1.5625 (unit not given)): 15.90% and 14.14% and 8.19%
ABTS scavenging rate ([4]; 0.1mM (second) series, concentration 3.125 (unit not given)): 24.15% and 23.67% and 20.29%
ABTS scavenging rate ([4]; 0.1mM (second) series, concentration 6.25 (unit not given)): 44.10% and 44.05% and 40.43%
ABTS scavenging rate ([4]; 0.1mM (second) series, concentration 12.5 (unit not given)): 74.66% and 75.28% and 72.52%
ABTS scavenging rate ([4]; 0.1mM (second) series, concentration 25 (unit not given)): 99.29% and 99.51% and 99.54%
ABTS scavenging rate ([4]; 0.1mM (second) series, concentration 50 (unit not given)): 99.16% and 99.11% and 99.25%
ABTS scavenging rate ([4]; 0.1mM (second) series, concentration 100 (unit not given)): 98.65% and 98.51% (2×)
ABTS scavenging rate ([4]; 0.5mM series, concentration 7.8125 (unit not given)): 63.17% and 62.77% and 62.93%
ABTS scavenging rate ([4]; 0.5mM series, concentration 15.625 (unit not given)): 91.66% and 90.68% and 90.61%
ABTS scavenging rate ([4]; 0.5mM series, concentration 31.25 (unit not given)): 99.28% and 99.41% and 99.37%
ABTS scavenging rate ([4]; 0.5mM series, concentration 62.5 (unit not given)): 98.95% and 98.76% and 98.72%
ABTS scavenging rate ([4]; 0.5mM series, concentration 125 (unit not given)): 98.61% and 98.31% and 98.43%
ABTS scavenging rate ([4]; 0.5mM series, concentration 500 (unit not given)): 98.97% and 98.88% and 98.79%
IC50 ([4]; mean ± SD, n = 3): 6.63 ± 0.41 µM
IC50 (DPPH· scavenging): 172 ± 76 µM
